Data from paper PMC6556873, “Rapid Covalent-Probe Discovery by Electrophile-Fragment Screening” (Journal of the American Chemical Society, 2019).
Where two headings read alike, the source gives them in different places.

Columns and labels:
[1] = in vitro; set-up: species or system HB2, CCD841; settings: human, hek293 cells
[2] = in vitro; set-up: species or system HB2, HEK293; settings: human, ccd841 cells
[3] = target: T1, OTUB2 (OTUB2A) (Homo sapiens, UniProt Q96DC9); set-up: Intact protein LC/MS covalent labelling, fragments in pools of five, 200 uM each, 4 °C; settings: 24 h, 4 °C, pool of five; 200 µM; covalent
T1 construct: full length residues 1-234, E. coli BL21(DE3)-R3, His tag removed by TEV, construct 27312 Da
T1 sequence (Q96DC9 1-234): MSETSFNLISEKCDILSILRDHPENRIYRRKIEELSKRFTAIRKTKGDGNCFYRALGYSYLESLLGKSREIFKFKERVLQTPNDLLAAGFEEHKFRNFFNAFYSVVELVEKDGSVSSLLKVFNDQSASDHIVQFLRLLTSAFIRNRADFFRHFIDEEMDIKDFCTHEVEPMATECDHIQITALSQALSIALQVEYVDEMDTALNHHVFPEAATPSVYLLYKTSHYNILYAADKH

[4] = target: T2, PCAF (Homo sapiens, UniProt Q92831); set-up: Intact protein LC/MS covalent labelling, fragments in pools of five, 200 uM each, 4 °C; settings: 24 h, 4 °C, pool of five; 200 µM; covalent
T2 construct: gene KAT2B

[5] = target: T3, BSA (Bos taurus, UniProt P02769); set-up: Intact protein LC/MS covalent labelling, fragments in pools of five, 200 uM each, 4 °C; settings: 24 h, 4 °C, pool of five; 200 µM; covalent
T3 construct: gene ALB

[6] = target: T4, NUDT7 (Homo sapiens, UniProt P0C024); set-up: Intact protein LC/MS covalent labelling, fragments in pools of five, 200 uM each, 4 °C; settings: 24 h, 4 °C, pool of five; 200 µM; covalent
T4 construct: residues 14-235, E. coli, pNIC28-Bsa4, N-terminal His6 tag removed by TEV, construct 26672 Da

[7] = in vitro; set-up: species or system CCD841, HEK293; settings: human, hb2 cells, read-out: HB-2 Cells Viability (%)

T3 sequence (P02769 whole entry, the tested form may be a part): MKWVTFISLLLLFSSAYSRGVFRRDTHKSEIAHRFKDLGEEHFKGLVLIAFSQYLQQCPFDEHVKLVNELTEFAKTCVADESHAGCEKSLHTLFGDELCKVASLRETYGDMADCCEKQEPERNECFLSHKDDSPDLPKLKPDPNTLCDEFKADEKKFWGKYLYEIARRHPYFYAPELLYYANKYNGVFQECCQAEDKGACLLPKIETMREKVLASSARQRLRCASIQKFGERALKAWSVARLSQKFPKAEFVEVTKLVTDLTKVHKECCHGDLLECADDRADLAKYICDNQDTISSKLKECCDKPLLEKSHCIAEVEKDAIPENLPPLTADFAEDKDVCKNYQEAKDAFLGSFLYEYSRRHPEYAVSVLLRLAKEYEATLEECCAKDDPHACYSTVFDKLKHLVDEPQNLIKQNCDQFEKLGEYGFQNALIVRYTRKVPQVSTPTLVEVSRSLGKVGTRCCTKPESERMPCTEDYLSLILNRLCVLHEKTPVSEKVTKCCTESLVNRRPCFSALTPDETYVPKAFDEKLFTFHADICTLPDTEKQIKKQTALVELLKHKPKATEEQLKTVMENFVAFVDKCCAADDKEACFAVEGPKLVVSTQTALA
T2 sequence (Q92831 whole entry, the tested form may be a part): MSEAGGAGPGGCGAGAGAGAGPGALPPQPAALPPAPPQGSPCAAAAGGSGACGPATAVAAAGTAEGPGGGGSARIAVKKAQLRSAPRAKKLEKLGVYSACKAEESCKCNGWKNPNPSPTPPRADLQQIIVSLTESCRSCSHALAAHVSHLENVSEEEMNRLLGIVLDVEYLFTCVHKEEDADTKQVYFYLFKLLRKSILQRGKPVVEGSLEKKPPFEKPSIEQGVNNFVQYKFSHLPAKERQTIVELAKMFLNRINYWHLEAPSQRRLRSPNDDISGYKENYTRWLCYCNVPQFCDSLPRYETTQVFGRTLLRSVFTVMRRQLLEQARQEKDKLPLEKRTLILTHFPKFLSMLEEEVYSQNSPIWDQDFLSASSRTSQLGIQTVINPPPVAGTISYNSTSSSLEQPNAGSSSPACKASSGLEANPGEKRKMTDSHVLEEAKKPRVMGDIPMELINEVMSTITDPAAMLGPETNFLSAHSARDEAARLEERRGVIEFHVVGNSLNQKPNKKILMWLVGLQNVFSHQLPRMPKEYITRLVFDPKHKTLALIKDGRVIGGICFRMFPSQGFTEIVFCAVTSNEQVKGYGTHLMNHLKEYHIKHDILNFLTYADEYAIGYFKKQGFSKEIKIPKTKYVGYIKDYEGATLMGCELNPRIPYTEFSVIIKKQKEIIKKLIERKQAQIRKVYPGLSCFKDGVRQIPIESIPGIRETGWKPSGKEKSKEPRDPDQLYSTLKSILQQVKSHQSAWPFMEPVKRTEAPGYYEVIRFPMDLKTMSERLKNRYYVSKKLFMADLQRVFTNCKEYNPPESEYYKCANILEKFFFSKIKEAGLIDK
T4 sequence (P0C024 14-235): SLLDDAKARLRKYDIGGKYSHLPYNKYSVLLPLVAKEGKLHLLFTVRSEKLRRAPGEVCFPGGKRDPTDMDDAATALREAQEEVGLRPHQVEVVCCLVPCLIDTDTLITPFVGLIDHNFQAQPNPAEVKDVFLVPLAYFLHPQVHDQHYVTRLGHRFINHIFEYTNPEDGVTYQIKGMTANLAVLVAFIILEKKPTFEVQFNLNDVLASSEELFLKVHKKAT

## O=C(CCl)N1CCN(c2ccc([N+](=O)[O-])cc2)CC1 [PCM-0102094]
[1]
  viability at 48 h, 10 µM: 1.3%
[2]
  viability at 48 h, 10 µM: 9.2%
[3]
  OTUB2: 0
[4]
  PCAF: 0
[5]
  BSA: 0
[6]
  NUDT7: 0.27
[7]
  viability at 48 h, 10 µM: 1.2%

## CS(=O)(=O)c1ccc(Cl)c(NC(=O)CCl)c1 [PCM-0102220]
[1]
  viability at 48 h, 10 µM: 21.3%
[2]
  viability at 48 h, 10 µM: 60.9%
[3]
  OTUB2: 0
[4]
  PCAF: 0
[5]
  BSA: 0
[6]
  NUDT7: 0.05
[7]
  viability at 48 h, 10 µM: 45.5%

## Cc1cc(NC(=O)CCl)n(-c2ccc(F)cc2)n1 [PCM-0102665]
[1]
  viability at 48 h, 10 µM: 20.6%
[2]
  viability at 48 h, 10 µM: 67.6%
[3]
  OTUB2: 0.53
[4]
  PCAF: 0
[5]
  BSA: 0
[6]
  NUDT7: 0
[7]
  viability at 48 h, 10 µM: 57%

## O=C(CCl)Nc1ccc(Br)cc1F [PCM-0102926]
[1]
  viability at 48 h, 10 µM: 32.5%
[2]
  viability at 48 h, 10 µM: 59.9%
[3]
  OTUB2: 0.2
[4]
  PCAF: 0
[5]
  BSA: 0
[6]
  NUDT7: 0.17
[7]
  viability at 48 h, 10 µM: 50.9%

## C=CC(=O)NC(=O)NCc1ccccc1 [PCM-0102834]
[1]
  viability at 48 h, 10 µM: 17.9%
[2]
  viability at 48 h, 10 µM: 57.4%
[3]
  OTUB2: 0
[4]
  PCAF: 0
[5]
  BSA: 0
[6]
  NUDT7: 0.35
[7]
  viability at 48 h, 10 µM: 23%

## COc1ccc(C)cc1NC(=O)CCl [PCM-0103043]
[1]
  viability at 48 h, 10 µM: 63.7%
[2]
  viability at 48 h, 10 µM: 79.1%
[3]
  OTUB2: 0.27
[4]
  PCAF: 0
[5]
  BSA: 0
[6]
  NUDT7: 0.06
[7]
  viability at 48 h, 10 µM: 81.3%

## C=CC(=O)N1CC(NC(=O)C(F)(F)F)CCC1C(F)(F)F (stereo not shown) [PCM-0102603]
[1]
  viability at 48 h, 10 µM: 110%
[2]
  viability at 48 h, 10 µM: 104%
[3]
  OTUB2: 0
[4]
  PCAF: 0
[5]
  BSA: 0
[6]
  NUDT7: 0
[7]
  viability at 48 h, 10 µM: 97.9%

## C=CC(=O)N1CCCc2ccccc21 [PCM-0102549]
[1]
  viability at 48 h, 10 µM: 111%
[2]
  viability at 48 h, 10 µM: 109%
[3]
  OTUB2: 0
[4]
  PCAF: 0
[5]
  BSA: 0
[6]
  NUDT7: 0
[7]
  viability at 48 h, 10 µM: 111%

## CC(C)C(=O)NNC(=O)CCl [PCM-0103014]
[1]
  viability at 48 h, 10 µM: 126%
[2]
  viability at 48 h, 10 µM: 95.1%
[3]
  OTUB2: 0.09
[4]
  PCAF: 0
[5]
  BSA: 0
[6]
  NUDT7: 0
[7]
  viability at 48 h, 10 µM: 98.8%

## CC1CCCN(C(=O)C2CCN(C(=O)CCl)CC2)C1 (stereo not shown) [PCM-0102933]
[1]
  viability at 48 h, 10 µM: 57.9%
[2]
  viability at 48 h, 10 µM: 80.1%
[3]
  OTUB2: 0
[4]
  PCAF: 0
[5]
  BSA: 0
[6]
  NUDT7: 0
[7]
  viability at 48 h, 10 µM: 92.6%

## O=C(CCl)N1CCc2sccc2C1 [PCM-0102123]
[1]
  viability at 48 h, 10 µM: 6.6%
[2]
  viability at 48 h, 10 µM: 73.1%
[3]
  OTUB2: 0.39
[4]
  PCAF: 0
[5]
  BSA: 0
[6]
  NUDT7: 0.14
[7]
  viability at 48 h, 10 µM: 9.2%

## C=CC(=O)N1CCC2(CCc3ccccc3O2)C1 (stereo not shown) [PCM-0103025]
[1]
  viability at 48 h, 10 µM: 103%
[2]
  viability at 48 h, 10 µM: 90.8%
[3]
  OTUB2: 0.2
[4]
  PCAF: 0
[5]
  BSA: 0
[6]
  NUDT7: 0
[7]
  viability at 48 h, 10 µM: 101%

## O=C(CCl)Nc1ccc([N+](=O)[O-])cc1Cl [PCM-0102392]
[1]
  viability at 48 h, 10 µM: 43.8%
[2]
  viability at 48 h, 10 µM: 53.9%
[3]
  OTUB2: 0.21
[4]
  PCAF: 0
[5]
  BSA: 0
[6]
  NUDT7: 0.16
[7]
  viability at 48 h, 10 µM: 43.5%

## CC(=O)c1cc2c(cc1NC(=O)CCl)OCO2 [PCM-0103010]
[1]
  viability at 48 h, 10 µM: 69.5%
[2]
  viability at 48 h, 10 µM: 86%
[3]
  OTUB2: 0
[4]
  PCAF: 0
[5]
  BSA: 0
[6]
  NUDT7: 0.14
[7]
  viability at 48 h, 10 µM: 59.9%

## CC(C)(C)NC(=O)CNC(=O)CCl [PCM-0102817]
[1]
  viability at 48 h, 10 µM: 101%
[2]
  viability at 48 h, 10 µM: 87.5%
[3]
  OTUB2: 0.41
[4]
  PCAF: 0
[5]
  BSA: 0
[6]
  NUDT7: 0
[7]
  viability at 48 h, 10 µM: 102%

## Cc1cc(NC(=O)CCl)n(-c2ccccc2C)n1 [PCM-0102699]
[1]
  viability at 48 h, 10 µM: 36.9%
[2]
  viability at 48 h, 10 µM: 81.6%
[3]
  OTUB2: 0
[4]
  PCAF: 0
[5]
  BSA: 0
[6]
  NUDT7: 0
[7]
  viability at 48 h, 10 µM: 58.9%
